The values that follow come from ChEMBL document CHEMBL3872281, “A one-pot laccase-catalysed synthesis of coumestan derivatives and their anticancer activity” (Bioorg Med Chem, 2017).

What all share (format): functional
Experiment [1] is described as follows: Cytotoxicity against human MCF7 cells assessed as cell growth inhibition after 48 hrs by SRB assay. The following applies: MCF7, 48 h; for CC50: read-out: LC50 (the source's name). Background: Sulforhodamine B stains cellular protein and so reports cell mass.
Experiment [2] can be described thus: Cytotoxicity against human UACC62 cells assessed as cell growth inhibition after 48 hrs by SRB assay. The conditions noted are these: UACC-62, 48 h.
Experiment [3] is described as follows: Cytotoxicity against human TK10 cells assessed as cell growth inhibition after 48 hrs by SRB assay. The conditions noted are these: TK-10, 48 h; for CC50: read-out: LC50 (the source's name).
A further experiment has as its system UACC-62. Description: Potency index, ratio of etoposide TGI to compound TGI for human UACC62 cells.

The structures appear in SMILES notation.

Consider `O=c1cc(O)c2ccccc2o1` [4-HYDROXYCOUMARINS], for which the GI50 (in general, the concentration that inhibits growth by half) is 95.3 µM in experiment [1], 83.6 µM in experiment [2] and > 100 µM in experiment [3]. Moreover, the TGI in experiment [1], in experiment [2] and in experiment [3] was > 100 µM throughout. In addition, the CC50 in experiment [1] and in experiment [3] was > 100 µM throughout.
With `Cc1cc2oc(=O)c3c4cc(O)c(O)c(F)c4oc3c2cc1C`, in experiment [1], the GI50 turned out to be 77.7 µM; the TGI (in general, the concentration giving total growth inhibition) was > 100 µM; the CC50 is > 100 µM. For the same compound, in experiment [2], the GI50 was 91.8 µM, the LC50 (concentration giving 50% net cell kill) is > 100 µM and the TGI is > 100 µM. In experiment [3], the GI50 is > 100 µM, the TGI is > 100 µM and the CC50 is > 100 µM.
As to `Cc1ccc2oc(=O)c3c4cc(O)c(O)c(C)c4oc3c2c1`, in experiment [1], the GI50 amounted to 7.96 µM, the TGI is 78.2 µM and the CC50 is > 100 µM. In experiment [2], the GI50 stood at 5.35 µM, the LC50 (concentration giving 50% net cell kill) worked out at 89.9 µM and the TGI stood at 9.82 µM. For the same compound, in experiment [3], the GI50 came to 48.8 µM, the TGI is > 100 µM and the CC50 was > 100 µM. For the same compound, the Ratio in the experiment with UACC-62 came out at 5.
Regarding `COc1cccc(O)c1O` [3-METHOXYCATECHOL], the GI50 in experiment [1] stood at 27.6 µM; in experiment [2], 23.6 µM; in experiment [3], 51.6 µM. Besides, the TGI in experiment [1] was determined as 60.7 µM; in experiment [2], 50.3 µM; in experiment [3], 97 µM. Further, the CC50 is 93.8 µM in experiment [1] and > 100 µM in experiment [3].
Regarding `Cc1c(O)c(O)cc2c1oc1c3cc(Cl)ccc3oc(=O)c21`, in experiment [1], the GI50 was 63.1 µM, the TGI is > 100 µM and the CC50 was > 100 µM. In addition, in experiment [2], the GI50 was determined as 39.7 µM, the LC50 (concentration giving 50% net cell kill) is > 100 µM and the TGI was found to be 73.6 µM. In experiment [3], the GI50 worked out at 58.1 µM, the TGI is > 100 µM and the CC50 is > 100 µM.
With `Cc1c(O)c(O)cc2c1oc1c3ccccc3oc(=O)c21`, in experiment [1], the GI50 came out at 54.9 µM, the TGI was > 100 µM and the CC50 was > 100 µM. Further, in experiment [2], the GI50 amounted to 55.6 µM, the LC50 (concentration giving 50% net cell kill) is > 100 µM and the TGI was > 100 µM. Further, in experiment [3], the GI50 is > 100 µM, the TGI is > 100 µM and the CC50 is > 100 µM.
Take `COc1c(O)c(O)cc2c1oc1c3cc(C)ccc3oc(=O)c21`: in experiment [1], the GI50 came to 65.8 µM, the TGI was > 100 µM and the CC50 is > 100 µM. Further, in experiment [2], the GI50 is 49.9 µM, the LC50 (concentration giving 50% net cell kill) is > 100 µM and the TGI is > 100 µM. Also, in experiment [3], the GI50 turned out to be 88.6 µM, the TGI was > 100 µM and the CC50 is > 100 µM.
For the compound `COc1c(O)c(O)cc2c1oc1c3cc(C)c(C)cc3oc(=O)c21`, in experiment [1], the GI50 is 29.5 µM, the TGI amounted to 95.4 µM and the CC50 was > 100 µM. Moreover, in experiment [2], the GI50 is 18.1 µM, the LC50 (concentration giving 50% net cell kill) was determined as 75.3 µM and the TGI is 46.7 µM. Besides, in experiment [3], the concentration for 50% growth inhibition (GI50) was 26.8 µM, the TGI came out at 66.4 µM and the CC50 was > 100 µM.
As to `Cc1ccc2oc(=O)c3c4cc(O)c(O)cc4oc3c2c1`, in experiment [1], the GI50 was 54.7 µM, the TGI is > 100 µM and the CC50 was > 100 µM. In experiment [2], the GI50 is 11.2 µM, the LC50 (concentration giving 50% net cell kill) was 90.7 µM and the TGI came out at 50.9 µM. Also, in experiment [3], the GI50 worked out at 52 µM, the TGI was > 100 µM and the CC50 was > 100 µM.
`Oc1cccc(F)c1O`: in experiment [1], the GI50 is 57.6 µM, the TGI was > 100 µM and the CC50 is > 100 µM. In experiment [2], the GI50 was 35.2 µM and the TGI was found to be 78.4 µM. Also, in experiment [3], the GI50 was determined as 84.7 µM, the TGI was > 100 µM and the CC50 was > 100 µM.
Take `O=c1oc2ccc(Cl)cc2c2oc3cc(O)c(O)cc3c12`: in experiment [1], the GI50 came out at 47.5 µM, the TGI was determined as 89.8 µM and the CC50 is > 100 µM. In experiment [2], the GI50 turned out to be 36.3 µM, the LC50 (concentration giving 50% net cell kill) was > 100 µM and the TGI came to 68.6 µM. In experiment [3], the GI50 worked out at 53.4 µM, the TGI is > 100 µM and the CC50 was > 100 µM.
As for `O=c1oc2ccc(Cl)cc2c2oc3c(F)c(O)c(O)cc3c12`, in experiment [1], the GI50 worked out at 70.3 µM, the TGI was > 100 µM and the CC50 is > 100 µM. Also, in experiment [2], the GI50 was determined as 83.7 µM, the LC50 (concentration giving 50% net cell kill) is > 100 µM and the TGI is > 100 µM. Besides, in experiment [3], the GI50 was > 100 µM, the TGI is > 100 µM and the CC50 is > 100 µM.
Take `O=c1oc2ccccc2c2oc3cc(O)c(O)cc3c12`: in experiment [1], the GI50 was 39.4 µM, the TGI was 77.3 µM and the CC50 was > 100 µM. In addition, in experiment [2], the 50% growth inhibitory concentration (GI50) was 33.3 µM, the LC50 (concentration giving 50% net cell kill) was 90.6 µM and the TGI was found to be 61.9 µM. For the same compound, in experiment [3], the GI50 amounted to 28.7 µM, the TGI was found to be 88.4 µM and the CC50 was > 100 µM.
Consider `O=c1oc2ccccc2c2oc3c(F)c(O)c(O)cc3c12`, for which, in experiment [1], the GI50 was found to be 53.1 µM, the TGI was > 100 µM and the CC50 is > 100 µM. In addition, in experiment [2], the GI50 was determined as 67.6 µM, the LC50 (concentration giving 50% net cell kill) is > 100 µM and the TGI is > 100 µM. Further, in experiment [3], the 50% growth inhibitory concentration (GI50) was > 100 µM, the TGI was > 100 µM and the CC50 was > 100 µM.
With `COc1c(O)c(O)cc2c1oc1c3ccccc3oc(=O)c21`, in experiment [1], the GI50 amounted to 87.3 µM, the concentration for total growth inhibition (TGI) was > 100 µM and the CC50 is > 100 µM. Also, in experiment [2], the GI50 was 67.6 µM, the LC50 (concentration giving 50% net cell kill) is > 100 µM and the TGI is > 100 µM. In addition, in experiment [3], the GI50 was > 100 µM, the TGI was > 100 µM and the CC50 is > 100 µM.
For `Cc1cc2oc(=O)c3c4cc(O)c(O)cc4oc3c2cc1C`, in experiment [1], the GI50 was determined as 46 µM, the TGI is 86.3 µM and the CC50 was > 100 µM. In addition, in experiment [2], the GI50 stood at 38.3 µM, the LC50 (concentration giving 50% net cell kill) is > 100 µM and the TGI came to 80.1 µM. Besides, in experiment [3], the GI50 turned out to be 53.3 µM, the TGI was > 100 µM and the CC50 was > 100 µM.
As to `Cc1cccc(O)c1O`, the GI50 in experiment [1] is 27.3 µM; in experiment [2], 15.2 µM; in experiment [3], 38.1 µM. Also, the TGI is 64.3 µM in experiment [1], 46.2 µM in experiment [2] and 75.8 µM in experiment [3]. In addition, the CC50 in experiment [1] and in experiment [3] was > 100 µM throughout.
Take `Cc1cc2oc(=O)cc(O)c2cc1C`: in experiment [1], the GI50 came to 82.3 µM, the TGI is > 100 µM and the CC50 is > 100 µM. In experiment [2], the GI50 worked out at 80.5 µM, the LC50 (concentration giving 50% net cell kill) was > 100 µM and the TGI is > 100 µM. Moreover, in experiment [3], the GI50 was > 100 µM, the TGI is > 100 µM and the CC50 was > 100 µM.
In the case of `O=c1cc(O)c2cc(Cl)ccc2o1`, in experiment [1], the GI50 worked out at 83.3 µM, the TGI is > 100 µM and the CC50 was > 100 µM. In experiment [2], the GI50 was 88.7 µM, the LC50 (concentration giving 50% net cell kill) is > 100 µM and the TGI was > 100 µM. Also, in experiment [3], the GI50 is > 100 µM, the TGI was > 100 µM and the CC50 is > 100 µM.
In the case of `Cc1cc2oc(=O)c3c4cc(O)c(O)c(C)c4oc3c2cc1C`, in experiment [1], the GI50 worked out at 87.3 µM, the TGI was > 100 µM and the CC50 was > 100 µM. Further, in experiment [2], the GI50 came to 67.6 µM, the LC50 (concentration giving 50% net cell kill) is > 100 µM and the TGI was > 100 µM. Also, in experiment [3], the GI50 was > 100 µM, the TGI was > 100 µM and the CC50 was > 100 µM.
On to `COc1cc([C@@H]2c3cc4c(cc3[C@@H](O[C@@H]3O[C@@H]5CO[C@@H](C)O[C@H]5[C@H](O)[C@H]3O)[C@H]3COC(=O)[C@H]23)OCO4)cc(OC)c1O` [ETOPOSIDE], for which, in experiment [1], the concentration for 50% growth inhibition (GI50) was determined as 0.56 µM, the TGI was > 100 µM and the CC50 was > 100 µM. For the same compound, in experiment [2], the GI50 was found to be 0.89 µM. In experiment [3], the CC50 was > 100 µM.
Regarding `Cc1ccc2oc(=O)cc(O)c2c1`, the GI50 in experiment [1] is 84.4 µM; in experiment [2], 84.7 µM; in experiment [3], > 100 µM. Moreover, the TGI in experiment [1], in experiment [2] and in experiment [3] was > 100 µM in each case. The CC50 in experiment [1] and in experiment [3] was > 100 µM in each case.
For `Oc1ccccc1O` [CATECHOL], in experiment [1], the concentration for 50% growth inhibition (GI50) worked out at 52.4 µM, the TGI is > 100 µM and the CC50 is > 100 µM. Further, in experiment [2], the GI50 turned out to be 45 µM and the TGI is > 100 µM. In addition, in experiment [3], the 50% growth inhibitory concentration (GI50) stood at 68 µM, the TGI was > 100 µM and the CC50 was > 100 µM.
